Where two headings read alike, the source gives them in different places.
Columns and labels:
[1] = Transmetallation kinetics with Cu(OAc)2 in aqueous solution pH 7.4 / pH 5 (UV-vis); format: physicochemical; settings: for Observed pseudo first order rate constant kobs, Cu(OAc)2 in water pH 5 (only or first step): 10-fold excess of Cu(OAc)2, water pH 5, 25 °C; for Observed pseudo first order rate constant kobs, Cu(OAc)2 in water pH 7.4: 10-fold excess of Cu(OAc)2, water pH 7.4, 25 °C
Protocol: Transmetallation studies were also conducted using UV-vis spectroscopy in aqueous solutions at pH 7.4 (phosphate buffer; 100 mM) and pH 5 (acetate buffer; 150 mM) to simulate physiological conditions, as thiosemicarbazones of this class transverse the cytosol (pH 7.4) to target lysosomes (pH 5), where transmetallation occurs.[25,26,28] Studies in aqueous solution were important to compare the results performed in DMSO above so as to interpret the biological studies and particularly the redox assays below where the same pH values were employed.
Transmetallation of the complexes of Dp4e4mT with Cu(OAc)2 in water was possible as it is soluble in aqueous solution at pH 7.4 and 5, while FeCl3 precipitates under these conditions and cannot be assessed. […] The UV-vis spectra of all complexes in water (ca. 10 μM solutions) are compared in Fig. S17 ^† and mirror the spectra in DMSO (see Experimental section). The spectra of [Fe(Dp4e4mT)2]^+, [Co(Dp4e4mT)2]^+, and [Pd(Dp4e4mT)Cl] are similar, and display an asymmetric maximum around 393 nm with a prominent shoulder (∼450 nm). The [Ni(Dp4e4mT)2] spectrum is similarly asymmetric, although the peak intensities are reversed relative to the Fe(III), Co(III), and Pd(II) spectra (Fig. S17 ^†). […] The spectrum of [Zn(Dp4e4mT)2] is unique in this group, with a symmetrical peak at ∼400 nm.
Table S2. Observed pseudo first order rate constants (k obs, s−1) for reactions of each Dp4e4mT complex with a 10-fold excess of Cu(OAc) 2 or FeCl 3 in DMSO or water (pH 7.4 or 5.0) at 25 °C. […]
[Co(Dp4e4mT)2]+ No reaction No reaction No reaction No reaction […]
a Reaction could not be deciphered by UV-Vis spectroscopy; bchlorido ligand hydrolysis

human tumor xenografts = settings: cited from earlier work; for efficacy against a lung tumor xenograft: in vivo after oral administration
[2] = mice, cited from earlier work

For CCN(C)C([S-])=NN=C(c1ccccn1)c1ccccn1.CCN(C)C([S-])=NN=C(c1ccccn1)c1ccccn1.[Zn+2] [[Zn(Dp4e4mT)2]], the “Observed pseudo first order rate constant kobs, Cu(OAc)2 in water pH 5 (only or first step)” value [1] was greater than 0.1 s−1 and the “Observed pseudo first order rate constant kobs, Cu(OAc)2 in water pH 7.4” value [1] was greater than 0.1 s−1.

In the case of CCN(C)C(=S)NN=C(c1ccccn1)c1ccccn1 [Dp4e4mT, di-2-pyridylketone-4-ethyl-4-methyl-3-thiosemicarbazone], the “efficacy against a lung tumor xenograft” value (human tumor xenografts) is given as “potent efficacy against a lung tumor xenograft” and the cardiac fibrosis [2] is given as “did not induce cardiac fibrosis in mice”.

In the case of CN(C)C(=S)NN=C(c1ccccn1)c1ccccn1 [Dp44mT, di-2-pyridylketone 4,4-dimethyl-3-thiosemicarbazone, reference compound], the “inhibition of human tumor xenografts” value (human tumor xenografts; nude mice, 0.4 mg per kg per day) is listed as “selectively inhibited a variety of human tumor xenografts in nude mice” and the cardiac fibrosis ([2]; intravenous, intensive non-optimal doses) is listed as “demonstrated cardiac fibrosis”.

For CCN(C)C([S-])=NN=C(c1ccccn1)c1ccccn1.CCN(C)C([S-])=NN=C(c1ccccn1)c1ccccn1.[Fe+3] [[Fe(Dp4e4mT)2]^+], the “kobs, decay of the 500 nm shoulder after Cu(OAc)2” value ([1]; aqueous, pH 7.4 and 5.0) was 0.00073 s⁻¹ and the “t½, decay of the 500 nm shoulder after Cu(OAc)2” value ([1]; aqueous, pH 7.4 and 5.0) was roughly 15 min.

For CCN(C)C([S-])=NN=C(c1ccccn1)c1ccccn1.CCN(C)C([S-])=NN=C(c1ccccn1)c1ccccn1.[Ga+3] [[Ga(Dp4e4mT)2]^+], the “Observed pseudo first order rate constant kobs, Cu(OAc)2 in water pH 5 (only or first step)” value [1] was greater than 0.1 s−1, the “Observed pseudo first order rate constant kobs, Cu(OAc)2 in water pH 7.4” value [1] was greater than 0.1 s−1 and the “t½, spectral change without added Cu(OAc)2” value ([1]; aqueous pH 7.4, no Cu(OAc)2) was roughly 0.5 min. For the same compound, the kobs, spectral change without added Cu(OAc)2 ([1]; aqueous pH 7.4, no Cu(OAc)2, λmax shift ∼415 nm to 400 nm) was 0.022 s⁻¹.

For CN(C(=S)NN=C(c1ccccn1)c1ccccn1)C1CCCCC1 [DpC, di-2-pyridylketone 4-cyclohexyl-4-methyl-3-thiosemicarbazone, reference compound], the “efficacy against a lung tumor xenograft” value (human tumor xenografts) is given as “potent efficacy against a lung tumor xenograft” and the cardiac fibrosis [2] is given as “did not induce cardiac fibrosis in mice”.

For CCN(C)C([S-])=NN=C(c1ccccn1)c1ccccn1.CCN(C)C([S-])=NN=C(c1ccccn1)c1ccccn1.[Co+3] [[Co(Dp4e4mT)2]^+], the “Observed pseudo first order rate constant kobs, Cu(OAc)2 in water pH 5 (only or first step)” value [1] was “No reaction” and the “Observed pseudo first order rate constant kobs, Cu(OAc)2 in water pH 7.4” value [1] was “No reaction”.

For CCN(C)C([S-])=NN=C(c1ccccn1)c1ccccn1.CCN(C)C([S-])=NN=C(c1ccccn1)c1ccccn1.[Ni+2] [[Ni(Dp4e4mT)2]], the “Observed pseudo first order rate constant kobs, Cu(OAc)2 in water pH 7.4” value [1] was “No reaction” and the “t½, faster step with Cu(OAc)2 at pH 5” value ([1]; aqueous pH 5, first of two consecutive first order reactions) was roughly 4 min.
